# Assay results: US6852673B2, “Herbicidal pyridine compounds” (BASF Aktiengesellschaft, priority 1998, dated 2005)
# Assays:
# Format in all cases: in vivo
# [1] = system: Ipomoea hederacea (IPOHE); experiment: Pre-emergence herbicidal evaluation, morning glory
# In short: (§1)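 Seeds mixed with potting soil were planted over about one inch of soil per pot, then sprayed with test compound in aqueous acetone at the equivalent of about 0.0125 to 0.4 kg per hectare. Pots were kept under standard greenhouse care and visually rated 2 to 4 weeks after treatment.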
# [2] = system: Digitaria sanguinalis (DIGSA); experiment: Post-emergence herbicidal evaluation, large crabgrass; details: rated 2 to 4 weeks after treatment
# Description: (§2) [table] [table] […] These acetone solutions are diluted with water and the resulting formulations applied at dosage levels equivalent of about 0.03 to 0.4 kg per hectare of test compound per pot. After spraying the plants are placed on greenhouse benches and are cared for in the usual manner, commensurate with conventional greenhouse practices. From 2 to 4 weeks after treatment, the seedling plants are examined and rated according to the rating system provided above. A rating 0 indicates growth as untreated control, a rating 9 indicates death.
# Zea mays (ZEAMX) [3] = experiment: Pre-emergence herbicidal evaluation, maize
# Source text: (§3) The pre-emergence herbicidal activity of the compounds of the present invention is exemplified by the following test in which the seeds of a variety of monocotyledonous and dicotyledonous plants are seperately mixed with potting soil and planted on top of approximately one inch of soil in separate pots. After planting, the pots are sprayed with the selected aqueous acetone solution containing test compound in sufficient quantity to provide the equivalent of about 0.0125 to 0.4 kg per hectare of test compound per pot. The treated pots are then placed on greenhouse benches, watered and cared for in accordance with conventional greenhouse procedures. From 2 to 4 weeks after treatment, the tests are terminated and each pot is examined and rated according to the rating system set forth below.
# [4] = system: Ambrosia artemiisifolia (AMBEL); experiment: Post-emergence herbicidal evaluation, ragweed; details: rated 2 to 4 weeks after treatment
# Description: as §2
# [5] = system: Matricaria inodora (MATIN); experiment: Post-emergence herbicidal evaluation, mayweed; details: rated 2 to 4 weeks after treatment
# Description: as §2
# Stellaria media (STEME) [6] = experiment: Pre-emergence herbicidal evaluation, chickweed
# In short: as §1
# [7] = system: Triticum aestivum (TRZAW); experiment: Pre-emergence herbicidal evaluation, winter wheat
# In short: as §1
# [8] = system: Ipomoea hederacea (IPOHE); experiment: Post-emergence herbicidal evaluation, morning glory; details: rated 2 to 4 weeks after treatment
# Description: as §2
# [9] = system: Alopecurus myosuroides (ALOMY); experiment: Pre-emergence herbicidal evaluation, black grass
# In short: as §1
# Galium aparine (GALAP) [10] = experiment: Pre-emergence herbicidal evaluation, cleaver
# In short: as §1
# Galium aparine (GALAP) [11] = experiment: Post-emergence herbicidal evaluation, cleaver; details: rated 2 to 4 weeks after treatment
# Description: as §2
# [12] = system: Alopecurus myosuroides (ALOMY); experiment: Post-emergence herbicidal evaluation, black grass; details: rated 2 to 4 weeks after treatment
# Description: as §2
# Oryza sativum (ORYSA) [13] = experiment: Post-emergence herbicidal evaluation, rice; details: rated 2 to 4 weeks after treatment
# Description: as §2
# Zea mays (ZEAMX) [14] = experiment: Post-emergence herbicidal evaluation, maize; details: rated 2 to 4 weeks after treatment
# Description: as §2
# Lamium purpureum (LAMPU) = experiment: Post-emergence herbicidal evaluation, purple deadnettle; details: rated 2 to 4 weeks after treatment
# Description: as §2
# Setaria viridis (SETVI) [15] = experiment: Post-emergence herbicidal evaluation, green foxtail; details: rated 2 to 4 weeks after treatment
# Description: as §2
# [16] = system: Triticum aestivum (TRZAW); experiment: Post-emergence herbicidal evaluation, winter wheat; details: rated 2 to 4 weeks after treatment
# Description: as §2
# Oryza sativum (ORYSA) [17] = experiment: Pre-emergence herbicidal evaluation, rice
# Source text: as §3
# Setaria viridis (SETVI) [18] = experiment: Pre-emergence herbicidal evaluation, green foxtail
# In short: as §1
# Glycine max (GLXMA) [19] = experiment: Post-emergence herbicidal evaluation, soyabeans; details: rated 2 to 4 weeks after treatment
# Description: as §2
# [20] = system: Abutilon theophrasti (ABUTH); experiment: Pre-emergence herbicidal evaluation, velvetleaf
# In short: as §1
# Solanum nigrum (SOLNI) = experiment: Pre-emergence herbicidal evaluation, black nightshade
# In short: as §1
# [21] = system: Abutilon theophrasti (ABUTH); experiment: Post-emergence herbicidal evaluation, velvetleaf; details: rated 2 to 4 weeks after treatment
# Description: as §2
# Glycine max (GLXMA) [22] = experiment: Pre-emergence herbicidal evaluation, soyabeans
# Source text: as §3
# Stellaria media (STEME) [23] = experiment: Post-emergence herbicidal evaluation, chickweed; details: rated 2 to 4 weeks after treatment
# Description: as §2
# [24] = system: Matricaria inodora (MATIN); experiment: Pre-emergence herbicidal evaluation, mayweed
# In short: as §1
smiles,measurement,setting,value
"Cc1cc(OC/C=C/C(F)(F)F)nc(Oc2cc(C(F)(F)F)nn2C)c1 [Example 1, (E)-2-(1-Methyl-3-trifluoromethylpyrazol-5-yloxy)-4-methyl-6-(4,4,4-trifluorobut-2-enyloxy)pyridine]",IPOHE rating,[1]; dose 0.013 kg/ha,2 (2 - Slight effect)
same,IPOHE rating,[1]; dose 0.025 kg/ha,5 (5 - Definite injury)
same,IPOHE rating,[1]; dose 0.1 kg/ha,7 (7 - Good herbicidal effect)
same,IPOHE rating,[1]; dose 0.4 kg/ha,9 (9 - Complete kill)
same,DIGSA rating,[2]; dose 0.03 kg/ha,7 (7 - Good herbicidal effect)
same,DIGSA rating,[2]; dose 0.1 kg/ha,8 (8 - Approaching complete kill)
same,DIGSA rating,[2]; dose 0.4 kg/ha,8 (8 - Approaching complete kill)
same,ZEAMX rating,Zea mays (ZEAMX) [3]; dose 0.013 kg/ha,1 (1 - Trace effect)
same,ZEAMX rating,Zea mays (ZEAMX) [3]; dose 0.025 kg/ha,2 (2 - Slight effect)
same,ZEAMX rating,Zea mays (ZEAMX) [3]; dose 0.4 kg/ha,5 (5 - Definite injury)
same,AMBEL rating,[4]; dose 0.03 kg/ha,6 (6 - Herbicidal effect)
same,AMBEL rating,[4]; dose 0.1 kg/ha,7 (7 - Good herbicidal effect)
same,AMBEL rating,[4]; dose 0.4 kg/ha,7 (7 - Good herbicidal effect)
same,MATIN rating,[5]; dose 0.03 kg/ha,8 (8 - Approaching complete kill)
same,MATIN rating,[5]; dose 0.1 kg/ha,8 (8 - Approaching complete kill)
same,MATIN rating,[5]; dose 0.4 kg/ha,8 (8 - Approaching complete kill)
same,activity against Stellaria,Stellaria media (STEME) [6],superior activity
same,STEME rating,Stellaria media (STEME) [6]; dose 0.013 kg/ha,5 (5 - Definite injury)
same,STEME rating,Stellaria media (STEME) [6]; dose 0.025 kg/ha,9 (9 - Complete kill)
same,STEME rating,Stellaria media (STEME) [6]; dose 0.1 kg/ha,9 (9 - Complete kill)
same,STEME rating,Stellaria media (STEME) [6]; dose 0.4 kg/ha,9 (9 - Complete kill)
same,TRZAW rating,[7]; dose 0.013 kg/ha,1 (1 - Trace effect)
same,TRZAW rating,[7]; dose 0.025 kg/ha,1 (1 - Trace effect)
same,TRZAW rating,[7]; dose 0.1 kg/ha,3 (3 - Moderate effect)
same,TRZAW rating,[7]; dose 0.4 kg/ha,4 (4 - Injury)
same,IPOHE rating,[8]; dose 0.03 kg/ha,9 (9 - Complete kill)
same,IPOHE rating,[8]; dose 0.1 kg/ha,9 (9 - Complete kill)
same,IPOHE rating,[8]; dose 0.4 kg/ha,9 (9 - Complete kill)
same,ALOMY rating,[9]; dose 0.013 kg/ha,4 (4 - Injury)
same,ALOMY rating,[9]; dose 0.025 kg/ha,6 (6 - Herbicidal effect)
same,ALOMY rating,[9]; dose 0.1 kg/ha,8 (8 - Approaching complete kill)
same,ALOMY rating,[9]; dose 0.4 kg/ha,9 (9 - Complete kill)
same,GALAP rating,Galium aparine (GALAP) [10]; dose 0.013 kg/ha,1 (1 - Trace effect)
same,GALAP rating,Galium aparine (GALAP) [10]; dose 0.025 kg/ha,2 (2 - Slight effect)
same,GALAP rating,Galium aparine (GALAP) [10]; dose 0.1 kg/ha,7 (7 - Good herbicidal effect)
same,GALAP rating,Galium aparine (GALAP) [10]; dose 0.4 kg/ha,9 (9 - Complete kill)
same,GALAP rating,Galium aparine (GALAP) [11]; dose 0.03 kg/ha,7 (7 - Good herbicidal effect)
same,GALAP rating,Galium aparine (GALAP) [11]; dose 0.1 kg/ha,8 (8 - Approaching complete kill)
same,GALAP rating,Galium aparine (GALAP) [11]; dose 0.4 kg/ha,8 (8 - Approaching complete kill)
same,ALOMY rating,[12]; dose 0.03 kg/ha,6 (6 - Herbicidal effect)
same,ALOMY rating,[12]; dose 0.1 kg/ha,8 (8 - Approaching complete kill)
same,ALOMY rating,[12]; dose 0.4 kg/ha,8 (8 - Approaching complete kill)
same,ORYSA rating,Oryza sativum (ORYSA) [13]; dose 0.03 kg/ha,2 (2 - Slight effect)
same,ORYSA rating,Oryza sativum (ORYSA) [13]; dose 0.1 kg/ha,3 (3 - Moderate effect)
same,ORYSA rating,Oryza sativum (ORYSA) [13]; dose 0.4 kg/ha,5 (5 - Definite injury)
same,ZEAMX rating,Zea mays (ZEAMX) [14]; dose 0.03 kg/ha,2 (2 - Slight effect)
same,ZEAMX rating,Zea mays (ZEAMX) [14]; dose 0.1 kg/ha,5 (5 - Definite injury)
same,ZEAMX rating,Zea mays (ZEAMX) [14]; dose 0.4 kg/ha,6 (6 - Herbicidal effect)
same,LAMPU rating,Lamium purpureum (LAMPU); dose 0.03 kg/ha,8 (8 - Approaching complete kill)
same,LAMPU rating,Lamium purpureum (LAMPU); dose 0.1 kg/ha,8 (8 - Approaching complete kill)
same,LAMPU rating,Lamium purpureum (LAMPU); dose 0.4 kg/ha,8 (8 - Approaching complete kill)
same,SETVI rating,Setaria viridis (SETVI) [15]; dose 0.03 kg/ha,5 (5 - Definite injury)
same,SETVI rating,Setaria viridis (SETVI) [15]; dose 0.1 kg/ha,8 (8 - Approaching complete kill)
same,SETVI rating,Setaria viridis (SETVI) [15]; dose 0.4 kg/ha,8 (8 - Approaching complete kill)
same,TRZAW rating,[16]; dose 0.03 kg/ha,2 (2 - Slight effect)
same,TRZAW rating,[16]; dose 0.1 kg/ha,3 (3 - Moderate effect)
same,TRZAW rating,[16]; dose 0.4 kg/ha,5 (5 - Definite injury)
same,ORYSA rating,Oryza sativum (ORYSA) [17]; dose 0.013 kg/ha,2 (2 - Slight effect)
same,ORYSA rating,Oryza sativum (ORYSA) [17]; dose 0.025 kg/ha,2 (2 - Slight effect)
same,ORYSA rating,Oryza sativum (ORYSA) [17]; dose 0.1 kg/ha,4 (4 - Injury)
same,ORYSA rating,Oryza sativum (ORYSA) [17]; dose 0.4 kg/ha,5 (5 - Definite injury)
same,activity against Setaria,Setaria viridis (SETVI) [18],superior activity
same,SETVI rating,Setaria viridis (SETVI) [18]; dose 0.013 kg/ha,9 (9 - Complete kill)
same,SETVI rating,Setaria viridis (SETVI) [18]; dose 0.025 kg/ha,9 (9 - Complete kill)
same,SETVI rating,Setaria viridis (SETVI) [18]; dose 0.1 kg/ha,9 (9 - Complete kill)
same,SETVI rating,Setaria viridis (SETVI) [18]; dose 0.4 kg/ha,9 (9 - Complete kill)
same,GLXMA rating,Glycine max (GLXMA) [19]; dose 0.03 kg/ha,6 (6 - Herbicidal effect)
same,GLXMA rating,Glycine max (GLXMA) [19]; dose 0.1 kg/ha,8 (8 - Approaching complete kill)
same,GLXMA rating,Glycine max (GLXMA) [19]; dose 0.4 kg/ha,8 (8 - Approaching complete kill)
same,activity against Abutilon,[20],superior activity
same,ABUTH rating,[20]; dose 0.013 kg/ha,7 (7 - Good herbicidal effect)
same,ABUTH rating,[20]; dose 0.025 kg/ha,7 (7 - Good herbicidal effect)
same,ABUTH rating,[20]; dose 0.1 kg/ha,8 (8 - Approaching complete kill)
same,ABUTH rating,[20]; dose 0.4 kg/ha,9 (9 - Complete kill)
same,SOLNI rating,Solanum nigrum (SOLNI); dose 0.013 kg/ha,4 (4 - Injury)
same,SOLNI rating,Solanum nigrum (SOLNI); dose 0.025 kg/ha,8 (8 - Approaching complete kill)
same,SOLNI rating,Solanum nigrum (SOLNI); dose 0.1 kg/ha,9 (9 - Complete kill)
same,SOLNI rating,Solanum nigrum (SOLNI); dose 0.4 kg/ha,9 (9 - Complete kill)
same,ABUTH rating,[21]; dose 0.03 kg/ha,8 (8 - Approaching complete kill)
same,ABUTH rating,[21]; dose 0.1 kg/ha,8 (8 - Approaching complete kill)
same,ABUTH rating,[21]; dose 0.4 kg/ha,8 (8 - Approaching complete kill)
same,GLXMA rating,Glycine max (GLXMA) [22]; dose 0.013 kg/ha,1 (1 - Trace effect)
same,GLXMA rating,Glycine max (GLXMA) [22]; dose 0.025 kg/ha,1 (1 - Trace effect)
same,GLXMA rating,Glycine max (GLXMA) [22]; dose 0.1 kg/ha,4 (4 - Injury)
same,GLXMA rating,Glycine max (GLXMA) [22]; dose 0.4 kg/ha,5 (5 - Definite injury)
same,STEME rating,Stellaria media (STEME) [23]; dose 0.03 kg/ha,5 (5 - Definite injury)
same,STEME rating,Stellaria media (STEME) [23]; dose 0.1 kg/ha,5 (5 - Definite injury)
same,STEME rating,Stellaria media (STEME) [23]; dose 0.4 kg/ha,6 (6 - Herbicidal effect)
same,MATIN rating,[24]; dose 0.013 kg/ha,8 (8 - Approaching complete kill)
same,MATIN rating,[24]; dose 0.025 kg/ha,9 (9 - Complete kill)
same,MATIN rating,[24]; dose 0.1 kg/ha,9 (9 - Complete kill)
same,MATIN rating,[24]; dose 0.4 kg/ha,9 (9 - Complete kill)
